Test results reported in PMC4076061 (Journal of cellular physiology, 2013).
Values belong to the molecule of their own block, whether it stands above or below them.

What was measured:
Type in all cases: cell-based
[1] = target: T1, cystic fibrosis transmembrane conductance regulator (CFTR) (Mus musculus, UniProt P26361); experiment: whole-cell patch clamp; settings: read-out: % stimulation at 20 μM
[2] = target: T1, cystic fibrosis transmembrane conductance regulator (CFTR)
[3] = target: T1, cystic fibrosis transmembrane conductance regulator (CFTR); experiment: whole-cell patch clamp of native Cl- current in mouse sperm; settings: read-out: % inhibition of db-cAMP-stimulated current (at 5 μM)

T1 sequence (P26361 whole entry): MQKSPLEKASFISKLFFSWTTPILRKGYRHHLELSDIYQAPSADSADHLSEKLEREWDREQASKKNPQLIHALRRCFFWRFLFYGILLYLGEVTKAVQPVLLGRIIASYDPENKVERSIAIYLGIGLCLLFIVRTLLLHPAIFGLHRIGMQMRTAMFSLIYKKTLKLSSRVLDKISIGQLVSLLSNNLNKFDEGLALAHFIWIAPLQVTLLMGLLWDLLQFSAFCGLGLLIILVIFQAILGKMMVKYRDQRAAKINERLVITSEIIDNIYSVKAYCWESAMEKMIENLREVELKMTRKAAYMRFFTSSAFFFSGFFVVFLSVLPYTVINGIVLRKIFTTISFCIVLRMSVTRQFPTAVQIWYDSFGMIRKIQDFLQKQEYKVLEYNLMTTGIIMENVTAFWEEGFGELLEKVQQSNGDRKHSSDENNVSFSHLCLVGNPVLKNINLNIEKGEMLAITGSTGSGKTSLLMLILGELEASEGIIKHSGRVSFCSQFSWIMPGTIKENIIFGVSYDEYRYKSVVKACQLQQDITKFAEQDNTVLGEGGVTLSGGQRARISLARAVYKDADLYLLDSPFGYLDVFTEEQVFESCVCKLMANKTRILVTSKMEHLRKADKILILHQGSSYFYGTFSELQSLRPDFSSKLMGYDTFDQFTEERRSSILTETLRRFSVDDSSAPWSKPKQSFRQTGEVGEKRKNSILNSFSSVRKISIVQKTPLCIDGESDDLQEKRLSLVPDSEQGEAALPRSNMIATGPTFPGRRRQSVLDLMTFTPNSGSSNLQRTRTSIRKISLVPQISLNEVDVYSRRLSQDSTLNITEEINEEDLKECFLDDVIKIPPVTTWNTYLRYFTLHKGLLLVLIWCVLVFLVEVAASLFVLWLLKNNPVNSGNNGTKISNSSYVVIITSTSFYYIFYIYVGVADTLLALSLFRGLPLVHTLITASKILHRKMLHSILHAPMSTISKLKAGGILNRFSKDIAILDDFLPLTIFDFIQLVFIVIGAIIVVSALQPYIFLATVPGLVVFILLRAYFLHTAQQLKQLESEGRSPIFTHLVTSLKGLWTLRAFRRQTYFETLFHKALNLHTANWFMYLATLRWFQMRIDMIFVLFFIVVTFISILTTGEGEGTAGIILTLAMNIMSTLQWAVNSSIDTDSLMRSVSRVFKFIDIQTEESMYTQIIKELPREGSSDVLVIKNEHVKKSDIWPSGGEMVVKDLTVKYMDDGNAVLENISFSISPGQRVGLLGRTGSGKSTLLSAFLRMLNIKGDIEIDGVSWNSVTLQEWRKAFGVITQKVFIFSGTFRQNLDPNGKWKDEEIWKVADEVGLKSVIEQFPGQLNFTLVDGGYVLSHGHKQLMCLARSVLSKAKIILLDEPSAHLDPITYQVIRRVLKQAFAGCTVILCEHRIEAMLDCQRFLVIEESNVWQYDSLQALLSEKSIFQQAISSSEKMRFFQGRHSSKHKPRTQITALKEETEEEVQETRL

activation at 20 µM [1]: 54 ± 0.5%
Structure (SMILES): O=c1c(-c2ccc(O)cc2)coc2cc(O)cc(O)c12 [genistein]

Structure (SMILES): O=C(O)c1ccccc1Nc1ccccc1 [DPC]
IC50 [2]: ~175 µM

inhibition at 5 µM [3]: 60%
Structure (SMILES): O=C(O)c1ccc(/C=C2\SC(=S)N(c3cccc(C(F)(F)F)c3)C2=O)cc1 [CFTRinh-172, 3-[(3-trifluoromethyl)phenyl]-5-[(4 carboxyphenyl)methylene]-2-thioxo-4thiazolidinone]
